{
  "source": "patent US20110251396A1",
  "about": "“Enantiomeric compositions of cicletanine, alone and in combination with other agents, for the treatment of disease” (Gilead Sciences, Inc., priority 2003, published 2011)",
  "origin": "cited, not measured here",
  "key": {"[1]": {"system": "T-type voltage-gated plasma membrane calcium channels"}, "[2]": {"system": "hypertensives", "settings": "fell from 128; 150-200 mg/day cicletanine, over 12 months"}, "[3]": {"system": "patients whose blood pressure had not been normalized", "settings": "cicletanine 50 and 100 mg per day added; all three groups"}, "[4]": {"system": "Dahl salt-sensitive rats", "settings": "cicletanine treatment"}, "[5]": {"system": "patients with type 2 diabetes"}},
  "note": "Read-outs that look alike come from different tables or passages of the source.",
  "data": [
    {"smiles": "COCC(=O)O[C@]1(CCN(C)CCCc2nc3ccccc3[nH]2)CCc2cc(F)ccc2[C@@H]1C(C)C", "note": "[mibefradil]", "values": [
      {"measurement": "selectivity for blocking T-type over L-type calcium channels", "setting": "[1]", "result": "10 to 50", "unit": "times"}
    ]},
    {"smiles": "CCCCNC(=O)NS(=O)(=O)c1ccc(C)cc1", "note": "[tolbutamide]", "values": [
      {"measurement": "peak insulin response to tolbutamide", "setting": "single intravenous dose of tolbutamide alone, before cicletanine administration", "result": 29.2, "unit": "mU/L"}
    ]},
    {"smiles": "Cc1ncc2c(c1O)COC2c1ccc(Cl)cc1", "note": "(racemic) [cicletanine]", "values": [
      {"measurement": "average triglyceride levels", "setting": "[2]", "result": 104, "unit": "mg/dL"},
      {"measurement": "patients with normalized blood pressure", "setting": "[3]", "result": 50, "unit": "%"},
      {"measurement": "hypoglycemic effect of tolbutamide", "setting": "following 7 days of cicletanine 100 mg per day", "result": "did not change"},
      {"measurement": "peak insulin response to tolbutamide", "setting": "single intravenous dose of tolbutamide following 7 days of cicletanine 100 mg per day", "result": 17.4, "unit": "mU/L"},
      {"measurement": "high-density lipoprotein (HDL) cholesterol", "setting": "[4]", "result": "increased"},
      {"measurement": "low-density lipoprotein (LDL) cholesterol", "setting": "[4]", "result": "significantly decreased"}
    ]},
    {"smiles": "CN(C)C(=N)N=C(N)N", "note": "[Metformin]", "values": [
      {"measurement": "patients with gastrointestinal side effects", "setting": "[5]; diarrhea, nausea, abdominal pain, metallic taste", "result": "20% to 30%"},
      {"measurement": "weight loss", "setting": "[5]; first 6 months of treatment", "result": "2 to 3", "unit": "kg"},
      {"measurement": "decrease of low-density lipoprotein (LDL) cholesterol levels", "setting": "[5]; monotherapy", "result": "10% to 15%"},
      {"measurement": "decrease of plasma triglyceride levels", "setting": "[5]; monotherapy", "result": "10% to 15%"}
    ]}
  ]
}
